Test results reported in patent US20230000813A1, “COMPOUND FOR THE TREATMENT OF BOVINE OR SWINE RESPIRATORY DISEASE” (Intervet Inc., priority 2016, published 2023).
In brackets after ≈: the same amount, converted by molar mass.

Tests used:
Experiment in all cases: MIC, broth-microdilution (CLSI VET01-A4)
Type in all cases: cell-based
[1] = system: Mannheimia haemolytica MH 10720 (154, BRD field isolate); conditions: Mannheimia haemolytica MH 10720; for MIC: read-out: MIC MH 10720
Outline: (§1)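 Broth microdilution per CLSI VET01-A4 using doubling dilution series of test compound; results interpreted per CLSI VET01-S3. MIC recorded as lowest concentration giving no turbidity visible to the unaided eye.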

[2] = system: Mannheimia haemolytica MH 12587 (1071, BRD field isolate, macrolide-resistance: erm+, E+); conditions: Mannheimia haemolytica MH 12587, macrolide-resistant
Outline: as §1

[3] = system: Mannheimia haemolytica MH 6357 (M7/2, reference strain, cattle infection strain); conditions: Mannheimia haemolytica MH 6357; read-out: MIC MH 6357
Outline: as §1

[4] = system: Mannheimia haemolytica MH 6374 (ATCC 33396, reference strain); conditions: Mannheimia haemolytica MH 6374; read-out: MIC MH 6374
Outline: as §1

[5] = system: Pasteurella multocida PM 10775 (080130003051, BRD field isolate); conditions: Pasteurella multocida PM 10775
Outline: as §1

[6] = system: Pasteurella multocida PM 12080 (IV102277-0093, BRD field isolate); conditions: Pasteurella multocida PM 12080; for MIC: read-out: MIC PM 12080
Outline: as §1

[7] = system: Pasteurella multocida PM 6267 (P 2225 (L386), reference strain, mouse infection strain); conditions: Pasteurella multocida PM 6267
Outline: as §1

[8] = system: Pasteurella multocida PM 6391 (ATCC 43137, reference strain); conditions: Pasteurella multocida PM 6391; for MIC: read-out: MIC PM 6391
Outline: as §1

[9] = system: Mannheimia haemolytica MH 13065 (XB0446-6003.9, BRD field isolate)
Outline: (§2)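 MIC read by eye as lowest compound concentration without visible growth (no turbidity), interpreted per CLSI VET01-S3. Doubling-dilution broth-microdilution trays, run according to CLSI VET01-A4.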

[10] = system: Mannheimia haemolytica MH 13093 (XB0472-6014.1, BRD field isolate)
Outline: as §2

Compound | MIC MH 10720 [1] | MIC MH 12587 [2] [µM] | MIC [3] [µM] | MIC [4] [µM] | MIC PM 10775 [5] | MIC [6] [µM] | MIC PM 6267 [7] | MIC [8] [µM] | MIC [9] [µM] | MIC [10] [µM] | MIC PM 12080 [6] | MIC ([5]; read-out: MIC PM 10775) [µM] | MIC [1] [µM] | MIC PM 6391 [8]
C#CCNCc1ccc(C#Cc2ccc(C(=O)NC(C(=O)NO)C(C)(C)N)cc2)s1 (racemic) [Compound 633] | <=0.1 μM | 0.8 (≈ 0.34 µg/mL) | 0.8 (≈ 0.34 µg/mL) | 0.4 (≈ 0.17 µg/mL) | <=0.1 μM | 0.2 (≈ 0.0849 µg/mL) | <=0.1 μM | 0.2 (≈ 0.0849 µg/mL) | 0.8 (≈ 0.34 µg/mL) | 0.8 (≈ 0.34 µg/mL) | – | – | – | –
CSCCNCc1ccc(C#Cc2ccc(C(=O)NC(C(=O)NO)C(C)(C)N)cc2)s1 (racemic) [Compound 635] | <=0.1 μM | 1.6 (≈ 0.737 µg/mL) | 1.6 (≈ 0.737 µg/mL) | 0.4 (≈ 0.184 µg/mL) | <=0.1 μM | – | <=0.1 μM | 0.4 (≈ 0.184 µg/mL) | 0.8 (≈ 0.369 µg/mL) | 0.8 (≈ 0.369 µg/mL) | <=0.1 μM | – | – | –
Cc1cnc(CNCc2ccc(C#Cc3ccc(C(=O)NC(C(=O)NO)C(C)(C)N)cc3)s2)o1 (racemic) [Compound 636] | <=0.1 μM | 1.6 (≈ 0.771 µg/mL) | 0.8 (≈ 0.385 µg/mL) | 0.4 (≈ 0.193 µg/mL) | <=0.1 μM | 0.4 (≈ 0.193 µg/mL) | <=0.1 μM | 0.4 (≈ 0.193 µg/mL) | 1.6 (≈ 0.771 µg/mL) | 0.8 (≈ 0.385 µg/mL) | – | – | – | –
CC(C)(N)C(NC(=O)c1ccc(C#Cc2ccc(CNCc3ccc(F)cc3)s2)cc1)C(=O)NO (racemic) [Compound 637] | <=0.1 μM | 1.6 (≈ 0.791 µg/mL) | 0.8 (≈ 0.396 µg/mL) | 0.4 (≈ 0.198 µg/mL) | – | 0.2 (≈ 0.0989 µg/mL) | <=0.1 μM | 0.4 (≈ 0.198 µg/mL) | 1.6 (≈ 0.791 µg/mL) | 0.8 (≈ 0.396 µg/mL) | – | 0.2 (≈ 0.0989 µg/mL) | – | –
C#CCNCc1ccc(C#Cc2ccc(C(=O)NC(C(=O)NO)C(C)(C)N)cc2)cn1 (racemic) [Compound 647] | – | 1.6 (≈ 0.671 µg/mL) | 1.6 (≈ 0.671 µg/mL) | 0.8 (≈ 0.336 µg/mL) | <=0.1 μM | 0.4 (≈ 0.168 µg/mL) | <=0.1 μM | 0.4 (≈ 0.168 µg/mL) | 0.8 (≈ 0.336 µg/mL) | 0.8 (≈ 0.336 µg/mL) | – | – | 0.4 (≈ 0.168 µg/mL) | –
CC(C)(N)C(NC(=O)c1ccc(C#Cc2ccc(CNCC(F)(F)F)s2)cc1)C(=O)NO (racemic) [Compound 648] | <=0.1 μM | 0.8 (≈ 0.375 µg/mL) | 0.8 (≈ 0.375 µg/mL) | 0.4 (≈ 0.187 µg/mL) | <=0.1 μM | 0.2 (≈ 0.0937 µg/mL) | <=0.1 μM | 0.4 (≈ 0.187 µg/mL) | 0.4 (≈ 0.187 µg/mL) | 1.6 (≈ 0.75 µg/mL) | – | – | – | –
CC(C)(N)C(NC(=O)c1ccc(C#Cc2ccc(CN3CC=CC3)s2)cc1)C(=O)NO (racemic) [Compound 649] | <=0.1 μM | 0.8 (≈ 0.351 µg/mL) | 0.8 (≈ 0.351 µg/mL) | 0.4 (≈ 0.175 µg/mL) | <=0.1 μM | 0.2 (≈ 0.0877 µg/mL) | <=0.1 μM | 0.2 (≈ 0.0877 µg/mL) | 0.4 (≈ 0.175 µg/mL) | 0.8 (≈ 0.351 µg/mL) | – | – | – | –
CC(C)(C(NC(=O)c1ccc(C#Cc2ccc(CNCc3ccccc3)cc2)cc1)C(=O)NO)[N+](=O)[O-] (racemic) [Compound 652] | <=0.1 μM | 0.8 (≈ 0.4 µg/mL) | 0.8 (≈ 0.4 µg/mL) | 0.8 (≈ 0.4 µg/mL) | <=0.1 μM | – | <=0.1 μM | 0.4 (≈ 0.2 µg/mL) | 0.4 (≈ 0.2 µg/mL) | 0.8 (≈ 0.4 µg/mL) | <=0.1 μM | – | – | –
CC(C)(C(NC(=O)c1ccc(C#Cc2ccc(CNCc3ccncc3)cc2)cc1)C(=O)NO)[N+](=O)[O-] (racemic) [Compound 654] | <=0.1 μM | 0.8 (≈ 0.401 µg/mL) | 0.4 (≈ 0.201 µg/mL) | 0.4 (≈ 0.201 µg/mL) | <=0.1 μM | – | <=0.1 μM | – | 0.4 (≈ 0.201 µg/mL) | 0.4 (≈ 0.201 µg/mL) | <=0.1 μM | – | – | <=0.1 μM
C[C@@H](O)[C@H](NC(=O)c1ccc(C#Cc2ccc(CNC3CC3)cc2)cc1)C(=O)NO [C. 103] | – | 0.8 (≈ 0.326 µg/mL) | 0.391 (≈ 0.159 µg/mL) | 0.195 (≈ 0.0795 µg/mL) | <=0.1 μM | – | <=0.1 μM | 0.195 (≈ 0.0795 µg/mL) | 0.4 (≈ 0.163 µg/mL) | 1.6 (≈ 0.652 µg/mL) | <=0.1 μM | – | 0.2 (≈ 0.0815 µg/mL) | –
C[C@@H](O)[C@H](NC(=O)c1ccc(C#Cc2ccc(CN3CCOCC3)s2)cc1)C(=O)NO [C. 192] | – | 1.6 (≈ 0.71 µg/mL) | 0.8 (≈ 0.355 µg/mL) | 0.8 (≈ 0.355 µg/mL) | <=0.1 μM | – | <=0.1 μM | 0.2 (≈ 0.0887 µg/mL) | 0.8 (≈ 0.355 µg/mL) | 0.8 (≈ 0.355 µg/mL) | <=0.1 μM | – | 0.2 (≈ 0.0887 µg/mL) | –
C[C@@H](O)[C@H](NC(=O)c1ccc(C#Cc2ccc(N)cc2)cc1)C(=O)NO [C. 245, 4-[2-(4-aminophenyl)ethynyI]-N-[(1S,2R)-2-hydroxy-1-(hydroxycarbamoyl)propyl]benzamide] | <=0.1 μM | 0.8 (≈ 0.283 µg/mL) | 0.2 (≈ 0.0707 µg/mL) | 0.4 (≈ 0.141 µg/mL) | <=0.1 μM | – | <=0.1 μM | 0.2 (≈ 0.0707 µg/mL) | 0.4 (≈ 0.141 µg/mL) | 0.4 (≈ 0.141 µg/mL) | <=0.1 μM | – | – | –
C[C@@H](O)[C@H](NC(=O)c1ccc(C#Cc2ccc(CNCc3ccccn3)cc2)cc1)C(=O)NO [C. 258] | – | 1.6 (≈ 0.734 µg/mL) | 0.4 (≈ 0.183 µg/mL) | 0.8 (≈ 0.367 µg/mL) | <=0.1 μM | – | <=0.1 μM | 0.2 (≈ 0.0917 µg/mL) | 0.8 (≈ 0.367 µg/mL) | 0.8 (≈ 0.367 µg/mL) | <=0.1 μM | – | 0.2 (≈ 0.0917 µg/mL) | –
C[C@@H](O)[C@H](NC(=O)c1ccc(C#Cc2ccc(CNCc3ccco3)cc2)cc1)C(=O)NO [C. 259] | <=0.1 μM | 0.4 (≈ 0.179 µg/mL) | 0.2 (≈ 0.0895 µg/mL) | 0.2 (≈ 0.0895 µg/mL) | <=0.1 μM | – | <=0.1 μM | – | 0.4 (≈ 0.179 µg/mL) | 0.4 (≈ 0.179 µg/mL) | <=0.1 μM | – | – | <=0.1 μM
C[C@@H](O)[C@H](NC(=O)c1ccc(C#Cc2ccc(CNCC#N)cc2)cc1)C(=O)NO [C. 360] | – | 0.8 (≈ 0.325 µg/mL) | 0.4 (≈ 0.163 µg/mL) | 0.4 (≈ 0.163 µg/mL) | <=0.1 μM | – | <=0.1 μM | – | 0.4 (≈ 0.163 µg/mL) | 0.8 (≈ 0.325 µg/mL) | <=0.1 μM | – | 0.2 (≈ 0.0813 µg/mL) | <=0.1 μM
C=CCNCc1ccc(C#Cc2ccc(C(=O)NC(C(=O)NO)C(C)(C)SC)cc2)cc1 (stereo not shown) [C. 582] | <=0.1 μM | 1.6 (≈ 0.723 µg/mL) | 0.8 (≈ 0.361 µg/mL) | 0.8 (≈ 0.361 µg/mL) | <=0.1 μM | 0.4 (≈ 0.181 µg/mL) | <=0.1 μM | 0.4 (≈ 0.181 µg/mL) | 0.8 (≈ 0.361 µg/mL) | 0.8 (≈ 0.361 µg/mL) | – | – | – | –
C=CCNCc1ccc(C#Cc2ccc(C(=O)NC(C(=O)NO)C(C)(C)S(C)(=O)=O)cc2)cc1 (stereo not shown) [C. 602] | <=0.1 μM | 1.6 (≈ 0.774 µg/mL) | 1.6 (≈ 0.774 µg/mL) | 0.8 (≈ 0.387 µg/mL) | <=0.1 μM | – | <=0.1 μM | – | 0.8 (≈ 0.387 µg/mL) | 0.8 (≈ 0.387 µg/mL) | <=0.1 μM | – | – | <=0.1 μM
CC(C)(C(NC(=O)c1ccc(C#Cc2ccc(CNCc3ccncc3)cc2)cc1)C(=O)NO)S(C)(=O)=O (stereo not shown) [C. 607] | <=0.1 μM | 0.8 (≈ 0.428 µg/mL) | 0.4 (≈ 0.214 µg/mL) | 0.4 (≈ 0.214 µg/mL) | <=0.1 μM | – | <=0.1 μM | – | 0.4 (≈ 0.214 µg/mL) | 0.4 (≈ 0.214 µg/mL) | <=0.1 μM | – | – | <=0.1 μM
CC(C)(C(NC(=O)c1ccc(C#Cc2ccc(CNCc3cccnc3)cc2)cc1)C(=O)NO)S(C)(=O)=O (stereo not shown) [C. 613] | <=0.1 μM | 1.6 (≈ 0.855 µg/mL) | 0.8 (≈ 0.428 µg/mL) | 0.4 (≈ 0.214 µg/mL) | <=0.1 μM | – | <=0.1 μM | – | 0.8 (≈ 0.428 µg/mL) | 0.8 (≈ 0.428 µg/mL) | <=0.1 μM | – | – | <=0.1 μM
